Legend:
[1] = biological target: T1, BRPF1B (Homo sapiens, UniProt P55201); assay: BROMOscan bromodomain competitive binding assay (DiscoveRx), BRPF1B; conditions: BROMOscan platform, n = 2 unless cell says n = 4
T1 construct: purchased DiscoveRx (BROMOscan platform); host or cells: E. coli host derived from BL21 (T7 phage)
T1 sequence (P55201 628-732 limits assumed): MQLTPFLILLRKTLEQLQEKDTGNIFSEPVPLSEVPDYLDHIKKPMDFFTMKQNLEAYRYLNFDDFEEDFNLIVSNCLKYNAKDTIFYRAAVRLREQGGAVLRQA
Protocol: (§1) Compounds were tested using the commercially available BROMOscan™ Platform (DiscoveRx): http://www.discoverx.com/technologies-platforms/competitive-binding-technology/bromoscan-technology-platform/bromoscan-assay-process.
(§2) Bromodomain assays. T7 phage strains displaying bromodomains were grown in parallel in 24-well blocks in an E. coli host derived from the BL21 strain. E. coli were grown to log-phase and infected with T7 phage from a frozen stock (multiplicity of infection=0.4) and incubated with shaking at 32° C. until lysis (90-150 minutes). The lysates were centrifuged (5,000×g) and filtered (0.2 μm) to remove cell debris. […] The liganded beads were blocked with excess biotin and washed with blocking buffer (SeaBlock (Pierce), 1% BSA, 0.05% Tween 20, 1 mM DTT) to remove unbound ligand and to reduce non-specific phage binding. […] Test compounds were prepared as 1000× stocks in 100% DMSO and subsequently diluted 1:10 in monoethylene glycol (MEG) to create stocks at 100× the screening concentration (resulting stock solution is 10% DMSO/90% MEG). The compounds were then diluted directly into the assays such that the final concentration of DMSO and MEG were 0.1% and 0.9%, respectively. All reactions were performed in polystyrene 96-well plates in a final volume of 0.135 ml. […] The bromodomain concentration in the eluates was measured by qPCR.
(§3) An 11-point 3-fold serial dilution of each test compound was prepared in 100% DMSO at 1000× final test concentration. This serial is then diluted to 100× in ethylene glycol and subsequently diluted to 1× in the assay (final DMSO concentration=0.1%, Ethylene glycol concentration=0.9%). Most Kds were determined using a compound top concentration=10,000 nM.
(§4) Binding constants (Kds) were calculated with a standard dose-response curve using the Hill equation: […]
(§5) The Hill Slope was set to −1. Curves were fitted using a non-linear least square fit with the Levenberg-Marquardt algorithm.
(§6) BROMOscan™ uses the same assay technology as KINOMEscan™. For a more detailed description of this assay technology, see Fabian et al.12

[2] = biological target: T2, BRD1 (Homo sapiens, UniProt O95696); assay: BROMOscan bromodomain competitive binding assay (DiscoveRx), BRD1; conditions: BROMOscan platform, n = 2
T2 construct: purchased DiscoveRx (BROMOscan platform); host or cells: E. coli host derived from BL21 (T7 phage)
T2 sequence (O95696 562-666 limits assumed): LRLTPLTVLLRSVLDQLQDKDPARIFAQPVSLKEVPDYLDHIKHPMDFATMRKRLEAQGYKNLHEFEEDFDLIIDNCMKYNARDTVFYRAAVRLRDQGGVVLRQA
Protocol: as §1, §2, §3, §4, §5, §6

[3] = biological target: T3, BRPF3 (Homo sapiens, UniProt Q9ULD4); assay: BROMOscan bromodomain competitive binding assay (DiscoveRx), BRPF3; conditions: BROMOscan platform, n = 2
T3 construct: purchased DiscoveRx (BROMOscan platform); host or cells: E. coli host derived from BL21 (T7 phage)
T3 sequence (Q9ULD4 589-693 limits assumed): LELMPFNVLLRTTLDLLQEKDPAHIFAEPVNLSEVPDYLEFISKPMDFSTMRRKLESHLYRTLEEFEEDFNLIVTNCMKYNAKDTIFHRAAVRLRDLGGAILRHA
Protocol: as §1, §2, §3, §4, §5, §6

Structure (SMILES): Cn1c(=O)ccc2cc(NS(=O)(=O)c3ccccc3)ccc21 [Compound 1, N-(1-methyl-2-oxo-1,2-dihydroquinolin-6-yl)benzenesulfonamide]
- Kd [1]: 65 nM
- Kd [2]: 1400 nM
- Kd [3]: 7600 nM

Structure (SMILES): Cn1c(=O)ccc2cc(NS(=O)(=O)c3ccccc3C#N)ccc21 [Compound 2, 2-cyano-N-(1-methyl-2-oxo-1,2-dihydroquinolin-6-yl)benzenesulfonamide]
- Kd [1]: 430 nM
- Kd [2]: 1700 nM

Structure (SMILES): Cn1c(=O)ccc2cc(NS(=O)(=O)c3cccc(C#N)c3)ccc21 [Compound 3, 3-cyano-N-(1-methyl-2-oxo-1,2-dihydroquinolin-6-yl)benzenesulfonamide]
- Kd [1]: 56 nM
- Kd [2]: 270 nM

Structure (SMILES): Cn1c(=O)ccc2cc(NS(=O)(=O)c3ccc(Cl)c(Cl)c3)ccc21 [Compound 9, 3,4-dichloro-N-(1-methyl-2-oxo-1,2-dihydroquinolin-6-yl)benzenesulfonamide]
- Kd [1]: 44 nM
- Kd [2]: 230 nM

Structure (SMILES): COc1cc2c(ccc(=O)n2C)cc1NS(=O)(=O)c1ccccc1 [Compound 10, N-(7-methoxy-1-methyl-2-oxo-1,2-dihydroquinolin-6-yl)benzenesulfonamide]
- Kd [1]: 29 nM
- Kd [2]: 380 nM
- Kd [3]: 2200 nM

Structure (SMILES): CCOc1cc2c(ccc(=O)n2C)cc1NS(=O)(=O)c1ccc(C#N)cc1 [Compound 13, 4-cyano-N-(7-ethoxy-1-methyl-2-oxo-1,2-dihydroquinolin-6-yl)benzenesulfonamide]
- Kd [1]: 55 nM

Structure (SMILES): CC(C)Oc1cc2c(ccc(=O)n2C)cc1NS(=O)(=O)c1ccc(C#N)cc1 [Compound 14, 4-cyano-N-(7-isopropoxy-1-methyl-2-oxo-1,2-dihydroquinolin-6-yl)benzenesulfonamide]
- Kd [1]: 39 nM

Structure (SMILES): COc1c(NS(=O)(=O)c2ccc(C#N)cc2)ccc2c1ccc(=O)n2C [Compound 16, 4-cyano-N-(5-methoxy-1-methyl-2-oxo-1,2-dihydroquinolin-6-yl)benzenesulfonamide]
- Kd [1]: 46 nM
- Kd [2]: 210 nM

Structure (SMILES): Cn1c(=O)ccc2c(Br)c(NS(=O)(=O)c3ccc(C#N)cc3)ccc21 [Compound 18, N-(5-bromo-1-methyl-2-oxo-1,2-dihydroquinolin-6-yl)-4-cyanobenzenesulfonamide]
- Kd [1]: 210 nM
- Kd [2]: 840 nM

Structure (SMILES): COc1cc2c(cc1NS(=O)(=O)c1ccccc1)cc(C)c(=O)n2C [Compound 21, N-(7-methoxy-1,3-dimethyl-2-oxo-1,2-dihydroquinolin-6-yl)benzenesulfonamide]
- Kd [1]: 17 nM
- Kd [2]: 190 nM
- Kd [3]: 590 nM

Structure (SMILES): COc1cc2c(cc1NS(=O)(=O)c1ccc(C#N)cc1)cc(C)c(=O)n2C [Compound 22, 4-cyano-N-(7-methoxy-1,3-dimethyl-2-oxo-1,2-dihydroquinolin-6-yl)benzenesulfonamide]
- Kd [1]: 15 nM
- Kd [2]: 100 nM
- Kd [3]: 280 nM

Structure (SMILES): COc1cc2c(cc1NS(=O)(=O)c1ccc(N)cc1)cc(C)c(=O)n2C [Compound 25, 4-amino-N-(7-methoxy-1,3-dimethyl-2-oxo-1,2-dihydroquinolin-6-yl)benzenesulfonamide]
- Kd [1]: 420 nM

Structure (SMILES): Cc1cc(=O)n(C)c2ccc(NS(=O)(=O)c3ccc(C#N)cc3)cc12 [Compound 30, 4-cyano-N-(1,4-dimethyl-2-oxo-1,2-dihydroquinolin-6-yl)benzenesulfonamide]
- Kd [1]: 24 nM
- Kd [2]: 150 nM

Structure (SMILES): CN(c1ccc2c(ccc(=O)n2C)c1)S(=O)(=O)c1ccc(C#N)cc1 [Compound 34, 4-cyano-N-methyl-N-(1-methyl-2-oxo-1,2-dihydroquinolin-6-yl)benzenesulfonamide]
- Kd [1]: 910 nM
- Kd [2]: 6700 nM

Structure (SMILES): CCn1c(=O)ccc2cc(NS(=O)(=O)c3ccc(C#N)cc3)ccc21 [Compound 35, 4-cyano-N-(1-ethyl-2-oxo-1,2-dihydroquinolin-6-yl)benzenesulfonamide]
- Kd [1]: 47 nM
- Kd [2]: 390 nM

Structure (SMILES): Cn1c(=O)ccc2cc(S(=O)(=O)Nc3ccc(C#N)cc3)ccc21 [Compound 38, N-(4-cyanophenyl)-1-methyl-2-oxo-1,2-dihydroquinoline-6-sulfonamide]
- Kd [1]: 100 nM
- Kd [2]: 150 nM

Structure (SMILES): CCc1cc2cc(NS(=O)(=O)c3ccc(C#N)cc3OC)ccc2n(C)c1=O [Compound 45, 4-cyano-N-(3-ethyl-1-methyl-2-oxo-1,2-dihydroquinolin-6-yl)-2-methoxybenzenesulfonamide]
- Kd [1]: 66 nM

Structure (SMILES): COc1cc(C#N)ccc1S(=O)(=O)Nc1cc(F)c2c(c1)cc(C)c(=O)n2C [Compound 49, 4-cyano-N-(8-fluoro-1,3-dimethyl-2-oxo-1,2-dihydroquinolin-6-yl)-2-methoxybenzenesulfonamide]
- Kd [1]: 10 nM

Structure (SMILES): COc1cc2c(cc1NS(=O)(=O)c1ccc(C#N)cc1)c(C)c(C)c(=O)n2C [Compound 50, 4-cyano-N-(7-methoxy-1,3,4-trimethyl-2-oxo-1,2-dihydroquinolin-6-yl)benzenesulfonamide]
- Kd [1]: 140 nM

Structure (SMILES): Cn1c(=O)ccc2cc(NS(C)(=O)=O)ccc21 [Compound 51, N-(1-methyl-2-oxo-1,2-dihydroquinolin-6-yl)methanesulfonamide]
- Kd [1]: 2200 nM

Structure (SMILES): CCS(=O)(=O)Nc1ccc2c(ccc(=O)n2C)c1 [Compound 52, N-(1-methyl-2-oxo-1,2-dihydroquinolin-6-yl)ethanesulfonamide]
- Kd [1]: 1200 nM

Structure (SMILES): CC(C)S(=O)(=O)Nc1ccc2c(ccc(=O)n2C)c1 [Compound 53, N-(1-methyl-2-oxo-1,2-dihydroquinolin-6-yl)propane-2-sulfonamide]
- Kd [1]: 1100 nM

Structure (SMILES): Cn1c(=O)ccc2cc(NS(=O)(=O)C3CC3)ccc21 [Compound 54, N-(1-methyl-2-oxo-1,2-dihydroquinolin-6-yl)cyclopropanesulfonamide]
- Kd [1]: 520 nM

Structure (SMILES): Cn1c(=O)ccc2cc(NS(=O)(=O)C3CCCCC3)ccc21 [Compound 55, N-(1-methyl-2-oxo-1,2-dihydroquinolin-6-yl)cyclohexanesulfonamide]
- Kd [1]: 380 nM

Structure (SMILES): Cc1cc2cc(NS(=O)(=O)C3CCCCC3)ccc2n(C)c1=O [Compound 56, N-(1,3-dimethyl-2-oxo-1,2-dihydroquinolin-6-yl)cyclohexanesulfonamide]
- Kd [1]: 31 nM

Structure (SMILES): COc1cc(C#N)ccc1S(=O)(=O)N(C)c1ccc2c(c1)cc(C)c(=O)n2C [Compound 59, 4-cyano-N-(1,3-dimethyl-2-oxo-1,2-dihydroquinolin-6-yl)-2-methoxy-N-methylbenzenesulfonamide]
- Kd [1]: 52 nM

Structure (SMILES): COc1cc(C(N)=O)ccc1S(=O)(=O)Nc1ccc2c(c1)cc(C)c(=O)n2C [Compound 62, 4-(N-(1,3-dimethyl-2-oxo-1,2-dihydroquinolin-6-yl)sulfamoyl)-3-methoxybenzamide]
- Kd [1]: 5 nM

Structure (SMILES): COc1cc2c(cc1NS(=O)(=O)c1ccccc1OC(F)(F)F)cc(C)c(=O)n2C [Compound 67, N-(7-methoxy-1,3-dimethyl-2-oxo-1,2-dihydroquinolin-6-yl)-2-(trifluoromethoxy)benzenesulfonamide]
- Kd [1]: 48 nM

Structure (SMILES): COc1ccccc1S(=O)(=O)Nc1ccc2c(c1)cc(C)c(=O)n2C [Compound P-001, N-(1,3-dimethyl-2-oxo-1,2-dihydroquinolin-6-yl)-2-methoxybenzenesulfonamide, reference compound]
- Kd [1]: 9 nM
- Kd [2]: 130 nM
